Measurements taken from PMC3914206.

Key:
Type in all cases: binding
Parameters in all cases: KINOMEscan: ABL1(F317L)-phosphorylated / KINOMEscan: ABL1(H396P)-nonphosphorylated / KINOMEscan: ABL1(H396P)-phosphorylated / KINOMEscan: ABL1(M351T)-phosphorylated / KINOMEscan: ABL1(T315I)-phosphorylated / KINOMEscan: ABL1-nonphosphorylated / KINOMEscan: ABL1-phosphorylated / KINOMEscan: ACVR2A / KINOMEscan: ACVR2B / KINOMEscan: ADCK3 / KINOMEscan: ADCK4 / KINOMEscan: AKT1 / KINOMEscan: AKT3 / KINOMEscan: ALK / KINOMEscan: ARK5 / KINOMEscan: AURKA / KINOMEscan: AURKC / KINOMEscan: BIKE / KINOMEscan: BMPR1A / KINOMEscan: BMPR1B / KINOMEscan: BMX / KINOMEscan: BRK / KINOMEscan: BRSK1 / KINOMEscan: BRSK2 / KINOMEscan: CAMK1 / KINOMEscan: CAMK1D / KINOMEscan: CAMK1G / KINOMEscan: CAMK2A / KINOMEscan: CAMK2B / KINOMEscan: AAK1 / KINOMEscan: CAMK2D / KINOMEscan: CAMK2G / KINOMEscan: ABL1(F317I)-nonphosphorylated / KINOMEscan: ABL1(F317I)-phosphorylated / KINOMEscan: ABL1(F317L)-nonphosphorylated: unit: % Ctrl
Settings in all cases: Compound Concentration 10 µM
panel of 442 kinases [1] = biological target: T1, panel of 442 kinases (Homo sapiens, UniProt P29322)
T1 construct: purchased KINOMEscan
T1 sequence (P29322 28-1005): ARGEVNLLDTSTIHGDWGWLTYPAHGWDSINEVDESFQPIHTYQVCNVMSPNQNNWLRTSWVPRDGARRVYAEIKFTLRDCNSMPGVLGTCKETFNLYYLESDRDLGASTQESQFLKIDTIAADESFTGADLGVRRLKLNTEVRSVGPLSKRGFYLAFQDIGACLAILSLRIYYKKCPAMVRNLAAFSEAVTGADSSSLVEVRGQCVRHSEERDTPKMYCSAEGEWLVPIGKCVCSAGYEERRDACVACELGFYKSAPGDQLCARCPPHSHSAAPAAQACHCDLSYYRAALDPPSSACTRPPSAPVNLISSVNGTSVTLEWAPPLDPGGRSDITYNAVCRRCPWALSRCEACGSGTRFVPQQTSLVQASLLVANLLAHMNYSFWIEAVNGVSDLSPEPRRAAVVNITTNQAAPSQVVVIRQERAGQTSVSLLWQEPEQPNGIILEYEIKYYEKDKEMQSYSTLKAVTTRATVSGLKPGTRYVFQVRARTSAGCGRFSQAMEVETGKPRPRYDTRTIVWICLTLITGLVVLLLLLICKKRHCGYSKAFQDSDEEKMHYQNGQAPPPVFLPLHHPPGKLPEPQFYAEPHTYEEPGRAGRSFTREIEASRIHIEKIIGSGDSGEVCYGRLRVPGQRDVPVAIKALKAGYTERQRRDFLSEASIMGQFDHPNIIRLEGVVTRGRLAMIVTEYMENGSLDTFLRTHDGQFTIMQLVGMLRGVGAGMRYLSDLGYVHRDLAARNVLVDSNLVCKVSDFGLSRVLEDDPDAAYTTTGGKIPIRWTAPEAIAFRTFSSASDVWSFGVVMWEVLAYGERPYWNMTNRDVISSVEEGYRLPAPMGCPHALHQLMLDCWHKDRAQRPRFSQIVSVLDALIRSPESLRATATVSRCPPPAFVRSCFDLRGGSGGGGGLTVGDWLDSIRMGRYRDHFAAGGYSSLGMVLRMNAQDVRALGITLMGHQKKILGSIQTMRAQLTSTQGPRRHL
Description: (§1) We assessed the selectivity of members of this scaffold using the KINOMEscan methodology across a near comprehensive panel of 442 kinases [[18,27]].

panel of 442 kinases [2] = biological target: T2, panel of 442 kinases (Homo sapiens, UniProt Q13882)
T2 construct: purchased KINOMEscan
Description: as §1

panel of 442 kinases [3] = biological target: T3, panel of 442 kinases (Homo sapiens, UniProt Q15208)
T3 construct: purchased KINOMEscan
Description: as §1

T2 sequence (Q13882 whole entry): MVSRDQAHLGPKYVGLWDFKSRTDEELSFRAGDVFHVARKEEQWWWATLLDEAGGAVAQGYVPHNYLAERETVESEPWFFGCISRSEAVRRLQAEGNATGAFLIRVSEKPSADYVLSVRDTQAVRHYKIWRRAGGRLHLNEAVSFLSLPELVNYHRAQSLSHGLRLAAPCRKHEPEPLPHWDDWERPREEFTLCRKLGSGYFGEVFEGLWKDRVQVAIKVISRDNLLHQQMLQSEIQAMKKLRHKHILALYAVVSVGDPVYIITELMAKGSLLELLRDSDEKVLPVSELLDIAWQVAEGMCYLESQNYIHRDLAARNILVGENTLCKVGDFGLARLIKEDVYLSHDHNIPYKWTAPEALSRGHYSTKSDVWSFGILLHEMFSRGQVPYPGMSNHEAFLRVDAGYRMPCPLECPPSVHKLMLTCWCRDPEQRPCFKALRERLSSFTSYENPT
T3 sequence (Q15208 whole entry): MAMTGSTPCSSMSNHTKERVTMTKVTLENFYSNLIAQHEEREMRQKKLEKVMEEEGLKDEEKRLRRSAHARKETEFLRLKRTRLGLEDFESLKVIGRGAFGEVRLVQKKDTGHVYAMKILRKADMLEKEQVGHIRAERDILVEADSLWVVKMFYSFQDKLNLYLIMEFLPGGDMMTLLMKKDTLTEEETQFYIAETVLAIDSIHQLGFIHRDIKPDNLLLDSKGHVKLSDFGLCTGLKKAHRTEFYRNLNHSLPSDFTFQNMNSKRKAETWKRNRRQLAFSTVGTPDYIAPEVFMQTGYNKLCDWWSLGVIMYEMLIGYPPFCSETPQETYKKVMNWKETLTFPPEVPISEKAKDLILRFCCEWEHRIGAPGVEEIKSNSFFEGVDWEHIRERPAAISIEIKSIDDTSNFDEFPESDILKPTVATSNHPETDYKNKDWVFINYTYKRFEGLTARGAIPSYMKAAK

| SMILES | KINOMEscan: EPHA8 (panel of 442 kinases [1]) | KINOMEscan: BRK (panel of 442 kinases [2]) | KINOMEscan: NDR1 (panel of 442 kinases [3]) |
| --- | --- | --- | --- |
| CCOc1cc(C(=O)N2CCC(N3CCN(C)CC3)CC2)ccc1Nc1ncc2c(n1)N(C1CCCC1)c1ccccc1C(=O)N2C [Compound 26] | 100 | 62 | 100 |
| COc1cc(C(=O)N2CCC(N3CCN(C)CC3)CC2)ccc1Nc1ncc2c(n1)N1CCc3cccc(c31)C(=O)N2C [Compound 24] | 72 | 54 | – |
| COc1cc(C(=O)N2CCC(N3CCN(C)CC3)CC2)ccc1Nc1ncc2c(n1)N(C)c1ccccc1C(=O)N2C [15 (LRRK2-IN-1)] | 80 | 58 | 96 |
| COc1cc(C(=O)N2CCC(N3CCN(C)CC3)CC2)ccc1Nc1ncc2c(n1)N(C1CCCC1)c1ccccc1C(=O)N2C [Compound 25, 11-cyclopentyl-2-((2-methoxy-4-(4-(4-methylpiperazin-1-yl)piperidine-1-carbonyl)phenyl)amino)-5-methyl-5H-benzo[e]pyrimido[5,4-b][1,4]diazepin-6(11H)-one] | 97 | 29 | 100 |
